# Laboratory results from patent US20210330672A1, “USE OF BCL6 INHIBITORS FOR TREATING AUTOIMMUNE DISEASES” (TEQLA THERAPEUTICS INC., priority 2018, published 2021).
# Key:
# [1] = test system: germinal centers of the spleen; assay: IHC with PNA staining of spleen as a measure of germinal center activity in KLH-immunized mice; assay type: in vivo, C57BL/6 mice; settings: spleen Day 14; for Staining Intensity, Group Mean: PNA IHC, KLH + Vehicle group 2.4; for % PNA-Positive Staining of Germinal Center, Group Mean: KLH + Vehicle group 42%
# Procedure: (§1) Experimental animals: Female C57BL/6 mice were purchased from Envigo (Livermore, Calif.) to provide 8- to 10-week-old animals at the time of immunization. IgG measurements were performed using Innovative Research KLH IgG ELISA kit. Germinal center staining was performed on Dako autostainer using procedures well known in the art.
# (§2) On Day 0, animals of Groups 2-6 (n=10 each) were immunized by intraperitoneal (IP) injection with 0.2 mL (0.5 mg) per mouse of KLH, a dose determined to be optimal for IP administration without adjuvant. Mice from Group 1 (n=5) were sham-immunized by IP injection of 0.2 mL PBS per mouse.
# (§3) Starting on Day 0 (immediately post-immunization) and continuing through Day 13 (i.e., 14 days total), animals in Group 1, 2, and 4-6 were injected IP once daily (QD) with vehicle, 30 mg/kg Compound 1, 10 mg/kg Compound 1, or 100 mg/kg Compound 2; animals in Group 3 were injected IP once weekly (QW) with 50 mg/kg CP. All doses were administered by IP injection at 5 mL/kg at approximately the same time (±1 h) each day.
# (§4) On Day 14 (at approximately 24 hours after the final dose administration), all animals were subjected to terminal cardiocentesis and euthanized. Following clotting and processing, the resulting serum samples were flash-frozen and stored at −80° C. pending analysis by enzyme-linked immunosorbent assay (ELISA). The spleen was harvested from each mouse and split into two. One half of each spleen was collected for immunohistochemical (IHC) analysis of germinal center activity using peanut agglutinin (PNA) staining. Single-cell suspensions were collected from the other spleen halves and stored in DMSO cell-freezing medium. These samples were to be used for optional FACS analysis. Remaining tissues were discarded without further evaluation.
# (§5) Statistical analysis: Descriptive and inferential analyses were performed using the corresponding functions of Excel 2010 (Microsoft, Redmond, Wash.). Inferential analysis consisted of t-test comparisons (two-tailed, non-paired, heteroscedasticity assumed) between groups as indicated. Values of p<0.05 were considered statistically significant.
# Immunohistochemical (IHC) Staining with Peanut Agglutinin (PNA) as a Measure of Germinal Center Activity. IHC with PNA staining was used to determine the levels of positive staining in the germinal centers of the spleen.
# KLH-specific IgG = assay: KLH-specific serum IgG (ELISA) after in vivo treatment of KLH-immunized mice; design: species or system C57BL/6 mice; settings: for Serum IgG Level, Day 14, Group Mean: KLH-immunized mice, KLH + Vehicle group 223879
# Procedure: as §1, §2, §3, §4, §5
# Results:KLH-specific IgG Levels. ELISA (performed as experimental replicates) was used to determine the levels of immunoglobulin G (IgG) specific for KLH in the terminal serum samples.
compound,measurement,setting,value
"CNC(=O)COc1cc2cc(Nc3nc(N4CCC(C(=O)N(C)C)CC4)ncc3Cl)cc(OC)c2n(C)c1=O [Compound 2, 1-(5-chloro-4-((8-methoxy-1-methyl-3-(2-(methylamino)-2-oxoethoxy)-2-oxo-1,2-dihydroquinolin-6-yl)amino)pyrimidin-2-yl)-N,N-dimethylpiperidine-4-carboxamide]","Staining Intensity, Group Mean",[1]; 100 mpk IP once daily,1.1
same,"% PNA-Positive Staining of Germinal Center, Group Mean",[1]; 100 mpk IP once daily,7%
same,attenuation of immune response to KLH (reduced IgG levels and germinal center activity),"KLH-specific IgG; 100 mg/kg, IP, once daily over 14 days",highly significant attenuation
same,attenuation of immune response to KLH,"KLH-specific IgG; 10 or 30 mg/kg, IP, once daily over 14 days, no observable dose response",less significant attenuation
same,"Serum IgG Level, Day 14, Group Mean",KLH-specific IgG; 100 mpk IP once daily Days 0-13,41503 U/mL
"CNC(=O)COc1cc2cc(Nc3nc(N4C[C@H](C)C[C@H](C)C4)ncc3Cl)ccc2n(C)c1=O [Compound 1, 2-((6-((5-chloro-2-((3R,5S)-3,5-dimethylpiperidin-1-yl)pyrimidin-4-yl)amino)-1-methyl-2-oxo-1,2-dihydroquinolin-3-yl)oxy)-N-methylacetamide]","Staining Intensity, Group Mean",[1]; 10 mpk IP once daily,1.2
same,"Staining Intensity, Group Mean",[1]; 30 mpk IP once daily,1.5
same,"% PNA-Positive Staining of Germinal Center, Group Mean",[1]; 10 mpk IP once daily,12%
same,"% PNA-Positive Staining of Germinal Center, Group Mean",[1]; 30 mpk IP once daily,12%
same,"Serum IgG Level, Day 14, Group Mean",KLH-specific IgG; 10 mpk IP once daily Days 0-13,100997 U/mL
same,"Serum IgG Level, Day 14, Group Mean",KLH-specific IgG; 30 mpk IP once daily Days 0-13,103098 U/mL
"O=P1(N(CCCl)CCCl)NCCCO1 (stereo not drawn) [CP, cyclophosphamide, reference compound]","Staining Intensity, Group Mean",[1]; 50 mpk IP once weekly,1.3
same,"% PNA-Positive Staining of Germinal Center, Group Mean",[1]; 50 mpk IP once weekly,29%
same,attenuation of immune response to KLH (serum IgG and PNA staining of splenic germinal centers),"KLH-specific IgG; 50 mg/kg, IP, once weekly over 14 days",nominal but non-significant attenuation
same,"Serum IgG Level, Day 14, Group Mean",KLH-specific IgG; 50 mpk IP once weekly over 14 days,161482 U/mL
